This is an account of results in patent US20250197382A1, “KIF18A INHIBITOR” (WIGEN BIOMEDICINE TECHNOLOGY (SHANGHAI) CO., LTD., priority 2022, published 2025).

Each structure is given as a SMILES string.

The target in this test is Recombinant human KIF18A (1-467His-tagged) protein (Homo sapiens (Human), UniProt Q8NI77). Put plainly: KIF18A enzyme assay (microtubule-stimulated ATPase activity, ADP-Glo). Format: biochemical. The following applies: 30 nM KIF18A, ATP 75 μM, read-out: inhibitory activity against KIF18A IC50. On the procedure: Biological Example 1. Assay for In Vitro Inhibition of Enzymatic Activity of KIF18A by Compounds of the Present Invention
Sequence of Recombinant human KIF18A (1-467His-tagged) protein (Q8NI77 1-467): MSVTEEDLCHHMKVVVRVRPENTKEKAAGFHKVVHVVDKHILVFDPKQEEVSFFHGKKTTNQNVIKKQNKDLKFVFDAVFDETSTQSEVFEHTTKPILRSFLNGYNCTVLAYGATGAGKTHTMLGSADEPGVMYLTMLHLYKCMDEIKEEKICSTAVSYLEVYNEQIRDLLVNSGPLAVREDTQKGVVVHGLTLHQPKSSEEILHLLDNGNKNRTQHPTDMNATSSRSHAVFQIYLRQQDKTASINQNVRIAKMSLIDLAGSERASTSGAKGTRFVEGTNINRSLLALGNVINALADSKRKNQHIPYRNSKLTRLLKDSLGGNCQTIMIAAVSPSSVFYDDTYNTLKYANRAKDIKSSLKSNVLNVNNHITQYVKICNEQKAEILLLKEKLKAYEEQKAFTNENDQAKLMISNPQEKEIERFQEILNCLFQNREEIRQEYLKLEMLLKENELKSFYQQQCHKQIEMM
Sequence of Recombinant human KIF18A (1-467His-tagged) protein (P02550 whole entry partner): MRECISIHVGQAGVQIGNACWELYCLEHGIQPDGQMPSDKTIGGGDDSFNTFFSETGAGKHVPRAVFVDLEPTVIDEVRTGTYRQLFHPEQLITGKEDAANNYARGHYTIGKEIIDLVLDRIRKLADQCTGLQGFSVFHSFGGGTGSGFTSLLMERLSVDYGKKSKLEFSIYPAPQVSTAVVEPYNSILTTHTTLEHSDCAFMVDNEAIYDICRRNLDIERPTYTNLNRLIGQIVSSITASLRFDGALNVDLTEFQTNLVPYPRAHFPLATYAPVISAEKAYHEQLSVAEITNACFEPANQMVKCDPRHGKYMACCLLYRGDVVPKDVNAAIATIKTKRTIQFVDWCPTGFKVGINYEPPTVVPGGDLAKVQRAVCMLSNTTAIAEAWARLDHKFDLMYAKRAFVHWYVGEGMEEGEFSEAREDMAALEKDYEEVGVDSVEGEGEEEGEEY
Sequence of Recombinant human KIF18A (1-467His-tagged) protein (P02554 whole entry partner): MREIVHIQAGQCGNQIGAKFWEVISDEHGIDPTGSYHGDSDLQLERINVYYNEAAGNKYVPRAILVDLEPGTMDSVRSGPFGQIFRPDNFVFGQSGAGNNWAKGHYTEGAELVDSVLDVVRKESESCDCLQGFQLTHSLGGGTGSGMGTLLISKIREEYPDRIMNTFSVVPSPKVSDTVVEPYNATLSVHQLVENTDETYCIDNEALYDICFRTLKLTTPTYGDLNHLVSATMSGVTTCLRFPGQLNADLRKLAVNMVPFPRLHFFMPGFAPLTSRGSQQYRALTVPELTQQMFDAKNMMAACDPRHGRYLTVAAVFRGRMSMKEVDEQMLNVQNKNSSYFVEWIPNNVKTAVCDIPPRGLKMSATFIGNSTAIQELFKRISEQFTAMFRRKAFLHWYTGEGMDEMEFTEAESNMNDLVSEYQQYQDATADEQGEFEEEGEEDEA
KIF18A enzyme assay: The enzymatic activity of KIF18A after treatment with the compounds was measured by an assay of microtubule-stimulated ATPase activity. ADP generated from the ATPase reaction was measured in this assay. The compounds were serially diluted 2-fold in DMSO over a range of 22 concentration points. Recombinant human KIF18A (1-467His-tagged) protein was expressed using a baculovirus system. Concentrations of KIF18A protein, microtubules, and ATP in the reaction were optimized for a standardized homogenous enzyme assay using an ADP-Glo kinase/ATPase assay kit. A reaction buffer [(15 mM Tris, pH 7.5), 10 mM MgCl2, 0.01% PluronicF-68, 1 μM paclitaxel, and 30 μg/mL pig microtubules] was prepared. The compounds and KIF18A protein (30 nM) were added to the prepared reaction buffer, and the reaction mixture was incubated at room temperature for 15 min, followed by addition of ATP (Km, 75 μM). The resulting reaction mixture was incubated at room temperature for another 15 min. 5 μL of ADP-Glo reagent and 2.5 μL of the reaction mixture were mixed and the resulting mixture was incubated at room temperature for 40 min. 10 μL of ADP-Glo detection reagent was added and the mixture was incubated at room temperature for 40 min. Luminescence was measured using a microplate reader and compared with that of the DMSO group, and then the inhibition percentages and IC50 values of the compounds were calculated.
On the technique in general: In ADP-Glo the light output rises with the ADP produced.

Take `C[C@H](CO)NS(=O)(=O)c1ccc(NC(=O)c2cc3c(c(N4CCO[C@H](C)C4)c2)OCC3)c(N2CCC3(CC2)CC3)c1` [Compound 64]: the IC50 (in general, the midpoint of a concentration-inhibition curve) is ≤ 100 nM.
`CC1(F)CCN(c2nc(NC(=O)c3ccc(NS(=O)(=O)CCO)cc3N3CCC4(CC3)CC4)cc3c2OCC3)C1` (stereo not shown) [Compound 72]: the IC50 is ≤ 100 nM.
Consider `O=C(Nc1cc2c(c(N3CCC(F)CC3)n1)OCC2)c1ccc(NS(=O)(=O)CCO)cc1N1CCC2(CC1)CC2` [Compound 73], for which the IC50 is ≤ 100 nM.
Consider `O=C(Nc1cc2c(c(N3CC4CC4C3)n1)OCC2)c1ccc(NS(=O)(=O)CCO)cc1N1CCC2(CC1)CC2` (stereo not shown) [Compound 74], for which the IC50 is ≤ 100 nM.
Turning to `CC(C)(CO)Nc1nc(NC(=O)c2ccc(NS(=O)(=O)CCO)cc2N2CCC3(CC2)CC3)cc2c1OCC2` [Compound 75], the IC50 is ≤ 100 nM.
Take `O=C(Nc1cc2c(c(N3CCOCC3)n1)OCC2)c1ccc(NS(=O)(=O)CCO)cc1N1CCC2(CC1)CC2` [Compound 76]: the IC50 was ≤ 100 nM.
`C[C@@H](CO)S(=O)(=O)Nc1ccc(C(=O)Nc2cc3c(c(N4CCC(F)(F)CC4)n2)OCC3)c(N2CCC3(CC2)CC3)c1` [Compound 77]: the IC50 was ≤ 100 nM.
Take `C[C@H](CO)S(=O)(=O)Nc1ccc(C(=O)Nc2cc3c(c(N4CCC(F)(F)CC4)n2)OCC3)c(N2CCC3(CC2)CC3)c1` [Compound 78]: the IC50 is ≤ 100 nM.
For `C[C@@H]1CN(c2nc(NC(=O)c3ccc(NS(=O)(=O)[C@@H](C)CO)cc3N3CCC4(CC3)CC4)cc3c2OCC3)CCO1` [Compound 79], the IC50 is ≤ 100 nM.
Consider `C[C@@H]1CN(c2nc(NC(=O)c3ccc(NS(=O)(=O)[C@H](C)CO)cc3N3CCC4(CC3)CC4)cc3c2OCC3)CCO1` [Compound 80], for which the IC50 was ≤ 100 nM.
On to `C[C@H]1CN(c2nc(NC(=O)c3ccc(S(=O)(=O)NCCO)cc3N3CCC4(CC3)CC4)cc3c2OCC3)CCO1` [Compound 83], for which the IC50 was ≤ 100 nM.
Consider `O=C(Nc1cc2c(c(N3CC(F)(F)C3)n1)OCC2)c1ccc(S(=O)(=O)NCCO)cc1N1CCC2(CC1)CC2` [Compound 84], for which the IC50 is ≤ 100 nM.
In the case of `O=C(Nc1cc2c(c(OCCC(F)(F)F)n1)OCC2)c1ccc(S(=O)(=O)NCCO)cc1N1CCC2(CC1)CC2` [Compound 85], the IC50 was ≤ 100 nM.
To `O=C(Nc1cc2c(c(N3CCC4(CC4)C3)n1)OCC2)c1ccc(S(=O)(=O)NCCO)cc1N1CCC2(CC1)CC2` [Compound 86] belongs ≤ 100 nM; to `O=C(Nc1cc2c(c(OC3CCC3)n1)OCC2)c1ccc(S(=O)(=O)NCCO)cc1N1CCC2(CC1)CC2` [Compound 87], ≤ 100 nM; to `CC1(F)CCN(c2nc(NC(=O)c3ccc(S(=O)(=O)NCCO)cc3N3CCC4(CC3)CC4)cc3c2OCC3)C1` (stereo not shown) [Compound 88], ≤ 100 nM.
To `O=C(Nc1cc2c(c(N3CCC(F)CC3)n1)OCC2)c1ccc(S(=O)(=O)NCCO)cc1N1CCC2(CC1)CC2` [Compound 89] belongs ≤ 100 nM; to `O=C(Nc1cc2c(c(N3CC4CC4C3)n1)OCC2)c1ccc(S(=O)(=O)NCCO)cc1N1CCC2(CC1)CC2` (stereo not shown) [Compound 90], ≤ 100 nM.
For the molecule `CC(C)(CO)Nc1nc(NC(=O)c2ccc(S(=O)(=O)NCCO)cc2N2CCC3(CC2)CC3)cc2c1OCC2` [Compound 91], the IC50 is ≤ 100 nM.
As for `O=C(Nc1cc2c(c(N3CCOCC3)n1)OCC2)c1ccc(S(=O)(=O)NCCO)cc1N1CCC2(CC1)CC2` [Compound 92], the IC50 was ≤ 100 nM.
For the molecule `C[C@@H](CO)NS(=O)(=O)c1ccc(C(=O)Nc2cc3c(c(N4CCC(F)(F)CC4)n2)OCC3)c(N2CCC3(CC2)CC3)c1` [Compound 93], the IC50 is ≤ 100 nM.
Consider `C[C@H](CO)NS(=O)(=O)c1ccc(C(=O)Nc2cc3c(c(N4CCC(F)(F)CC4)n2)OCC3)c(N2CCC3(CC2)CC3)c1` [Compound 94], for which the 50% inhibitory concentration (IC50) is ≤ 100 nM.
For the molecule `C[C@@H]1CN(c2nc(NC(=O)c3ccc(S(=O)(=O)N[C@@H](C)CO)cc3N3CCC4(CC3)CC4)cc3c2OCC3)CCO1` [Compound 95], the IC50 is ≤ 100 nM.
In the case of `C[C@H](CO)NS(=O)(=O)c1ccc(C(=O)Nc2cc3c(c(N4CCO[C@H](C)C4)n2)OCC3)c(N2CCC3(CC2)CC3)c1` [Compound 96], the IC50 was ≤ 100 nM.
On to `C[C@@H]1CN(c2nc(C(=O)Nc3ccc(NS(=O)(=O)CCO)cc3N3CCC4(CC3)CC4)cc3c2OCC3)CCO1` [Compound 98], for which the IC50 is ≤ 100 nM.
For the molecule `C[C@H]1CN(c2nc(C(=O)Nc3ccc(NS(=O)(=O)CCO)cc3N3CCC4(CC3)CC4)cc3c2OCC3)CCO1` [Compound 99], the IC50 was ≤ 100 nM.
For `O=C(Nc1ccc(NS(=O)(=O)CCO)cc1N1CCC2(CC1)CC2)c1cc2c(c(N3CC(F)(F)C3)n1)OCC2` [Compound 100], the IC50 was ≤ 100 nM.
As to `O=C(Nc1ccc(NS(=O)(=O)CCO)cc1N1CCC2(CC1)CC2)c1cc2c(c(OCCC(F)(F)F)n1)OCC2` [Compound 101], the half-inhibitory concentration (IC50) is ≤ 100 nM.
On to `O=C(Nc1ccc(NS(=O)(=O)CCO)cc1N1CCC2(CC1)CC2)c1cc2c(c(N3CCC4(CC4)C3)n1)OCC2` [Compound 102], for which the IC50 was ≤ 100 nM.
Consider `O=C(Nc1ccc(NS(=O)(=O)CCO)cc1N1CCC2(CC1)CC2)c1cc2c(c(OC3CCC3)n1)OCC2` [Compound 103], for which the IC50 is ≤ 100 nM.
`CC1(F)CCN(c2nc(C(=O)Nc3ccc(NS(=O)(=O)CCO)cc3N3CCC4(CC3)CC4)cc3c2OCC3)C1` (stereo not shown) [Compound 104]: the half-inhibitory concentration (IC50) was ≤ 100 nM.
To `O=C(Nc1ccc(NS(=O)(=O)CCO)cc1N1CCC2(CC1)CC2)c1cc2c(c(N3CCC(F)CC3)n1)OCC2` [Compound 105] belongs ≤ 100 nM.
For `CC(C)(CO)Nc1nc(C(=O)Nc2ccc(NS(=O)(=O)CCO)cc2N2CCC3(CC2)CC3)cc2c1OCC2` [Compound 107], the IC50 is ≤ 100 nM.
For `O=C(Nc1ccc(NS(=O)(=O)CCO)cc1N1CCC2(CC1)CC2)c1cc2c(c(N3CCOCC3)n1)OCC2` [Compound 108], the IC50 is ≤ 100 nM.
As for `C[C@@H](CO)S(=O)(=O)Nc1ccc(NC(=O)c2cc3c(c(N4CCC(F)(F)CC4)n2)OCC3)c(N2CCC3(CC2)CC3)c1` [Compound 109], the half-inhibitory concentration (IC50) was ≤ 100 nM.
As for `C[C@H](CO)S(=O)(=O)Nc1ccc(NC(=O)c2cc3c(c(N4CCC(F)(F)CC4)n2)OCC3)c(N2CCC3(CC2)CC3)c1` [Compound 110], the IC50 was ≤ 100 nM.
The value for `C[C@@H]1CN(c2nc(C(=O)Nc3ccc(NS(=O)(=O)[C@@H](C)CO)cc3N3CCC4(CC3)CC4)cc3c2OCC3)CCO1` [Compound 111] was ≤ 100 nM; that for `C[C@@H]1CN(c2nc(C(=O)Nc3ccc(NS(=O)(=O)[C@H](C)CO)cc3N3CCC4(CC3)CC4)cc3c2OCC3)CCO1` [Compound 112] was ≤ 100 nM.
In the case of `C[C@@H]1CN(c2nc(C(=O)Nc3ccc(S(=O)(=O)NCCO)cc3N3CCC4(CC3)CC4)cc3c2OCC3)CCO1` [Compound 114], the IC50 was ≤ 100 nM.
The value for `C[C@H]1CN(c2nc(C(=O)Nc3ccc(S(=O)(=O)NCCO)cc3N3CCC4(CC3)CC4)cc3c2OCC3)CCO1` [Compound 115] was ≤ 100 nM; that for `O=C(Nc1ccc(S(=O)(=O)NCCO)cc1N1CCC2(CC1)CC2)c1cc2c(c(N3CC(F)(F)C3)n1)OCC2` [Compound 116] was ≤ 100 nM.
`O=C(Nc1ccc(S(=O)(=O)NCCO)cc1N1CCC2(CC1)CC2)c1cc2c(c(OCCC(F)(F)F)n1)OCC2` [Compound 117]: the 50% inhibitory concentration (IC50) was ≤ 100 nM.
For `O=C(Nc1ccc(S(=O)(=O)NCCO)cc1N1CCC2(CC1)CC2)c1cc2c(c(N3CCC4(CC4)C3)n1)OCC2` [Compound 118], the IC50 is ≤ 100 nM.
